In US20120021967A1, “SYNTHETIC ANTIBODIES” (Arizona Board of Regents, A Body Corporate of the State Of …, priority 2008, published 2012):
Each block holds one compound with its values, some of them ahead of it. Where a SMILES comes first, the peptide text is derived from it. Where no end group is shown, it is not given here.

Legend:
[1] = target: TNF-α (Homo sapiens, UniProt P01375); experiment: SPR (Biacore A100) of TNF1 lead and mutant peptides on captured TNF-α; format: binding; details: for koff: kinetic fits of sensorgrams, read-out: off-rate koff
Chain of TNF-α (P01375 77-233 limits assumed, species assumed): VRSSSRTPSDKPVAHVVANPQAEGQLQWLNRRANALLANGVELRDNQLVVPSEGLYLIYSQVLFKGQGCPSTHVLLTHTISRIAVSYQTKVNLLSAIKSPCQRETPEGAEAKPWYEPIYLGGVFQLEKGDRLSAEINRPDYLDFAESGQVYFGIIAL
Excerpt: Scanning Mutagenesis of the TNF1 Lead Peptide. After lead identification, the next step in the AMPLI algorithm is characterization of point mutations in the lead heteropolymer. Using short peptides makes it chemically feasible to synthesize a significant fraction of the point-mutant space, which can then be screened for enhanced point mutations. For example, all possible point mutations in the 17 randomized positions using all 20 natural amino acids could be synthesized and screened within a single 384-well plate (323 total point-mutants). However, libraries containing all 20 natural amino acids are not required for affinity optimization of protein-protein interactions. A library of TNF1 point-mutants containing all substitutions of the amino acid set {Y, A, D, S, K, N, V, W} in each of the 17 randomized positions (132 unique point-mutants) was synthesized. Tyrosine (Y), alanine (A), aspartic acid (D) and serine (S) were selected because of their effectiveness in producing high affinity interactions when substituted into the complementary-determining regions (CDRs) of synthetic antibodies (Felouse, Proceedings of the National Academy of Sciences 101(34):12467, 2004), lysine (K) was selected to balance the charge in the substitution set, asparagine (N), valine (V) and tryptophan (W) were selected to span the hydropathicity range (Kyte J & Doolittle R F, Journal of Molecular Biology 157(1):105-132, 1982). […] This concentration was used to increase the high-end dynamic range for quantifying enhancing point mutations at the expense of low-end dynamic range for quantifying detrimental point mutations.
Point-mutant libraries were prepared in 96-well stock plates From the stock plate, peptides were diluted to 50 μM concentration in Biacore HBS-EP buffer (GE Healthcare, Piscataway, N.J.) containing 1 mg/ml carboxymethyl-dextran (Sigma-Aldrich, St. Louis, Mo.) to reduce non-specific binding to the CM-5 SPR chip surface. […] Spot 3 contained only immobilized neutravidin and served as a reference spot.
Using the prepared 96-well plates and Biacore A100 SPR instrument, four peptides were flowed separately, in parallel, through the four flow cells over all 4 TNF-α spots and the neutravidin reference spot, with a 60 second association phase and 300 second dissociation phase. SPR sensorgrams were recorded for each peptide response with all 4 TNF-α spots and the neutravidin reference spot across the four flow cells on the SPR chip. […]
Purified point-mutant affinities were measured on the Biacore A100 using SPR equilibrium binding response across a series of peptide concentrations on an SPR chip with TNF-α captured as described above. […]

[2] = target: T1, transferrin (Homo sapiens, UniProt P02787); experiment: SPR characterization of TRF26 lead and point-mutant peptides against transferrin; format: binding
T1 sequence (P02787 20-698): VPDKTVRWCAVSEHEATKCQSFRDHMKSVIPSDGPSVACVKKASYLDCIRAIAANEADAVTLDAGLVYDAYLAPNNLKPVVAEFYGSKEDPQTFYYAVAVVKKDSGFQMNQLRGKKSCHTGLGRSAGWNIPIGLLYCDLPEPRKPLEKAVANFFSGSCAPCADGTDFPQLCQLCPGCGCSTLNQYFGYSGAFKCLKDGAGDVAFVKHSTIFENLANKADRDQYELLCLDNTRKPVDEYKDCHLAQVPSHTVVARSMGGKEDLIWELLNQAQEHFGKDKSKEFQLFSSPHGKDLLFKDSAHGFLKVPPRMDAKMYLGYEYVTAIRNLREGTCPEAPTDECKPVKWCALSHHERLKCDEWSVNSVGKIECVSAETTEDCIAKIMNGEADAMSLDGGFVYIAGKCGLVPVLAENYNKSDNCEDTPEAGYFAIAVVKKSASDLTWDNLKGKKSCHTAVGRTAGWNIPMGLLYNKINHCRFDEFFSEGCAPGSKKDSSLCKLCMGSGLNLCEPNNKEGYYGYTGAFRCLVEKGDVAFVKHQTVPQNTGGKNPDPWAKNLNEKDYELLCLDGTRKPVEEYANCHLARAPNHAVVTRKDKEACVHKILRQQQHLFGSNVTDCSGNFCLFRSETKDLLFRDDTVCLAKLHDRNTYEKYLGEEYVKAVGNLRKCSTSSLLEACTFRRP
Excerpt: In this example, a small library of ˜300 variant peptides was synthesized in 96-well format. […] The lead peptide (TRF26, see Table 6) was selected as a moderate-affinity binder of the target protein transferrin. The library of variant peptides contained all possible point mutations of the lead peptide using the following set of amino acids {M,A,V,P,L,I,G,W,Y,F,S,T,N,Q,K,R,H,D,E}.
Relative affinities/specificities of the lead peptide and point-mutants were characterized using SPR as follows:
Peptide sample preparation. Lyophilized peptides were individually diluted in 96-well plates to approximately equal concentration (1 mg/ml) in 1×PBST buffer pH 7.4. Peptide sample purity was determined by MALDI-MS analysis of the diluted peptide samples.
SPR gold substrate preparation. Gold substrates used for SPR analysis were first modified with a monolayer of cysteamine by immersing the substrate in a 10 mM cysteamine/EtOH solution for 1 hour, thereby exposing a layer of primary amines just above the gold surface. After addition of the monolayer, the gold substrates were rinsed extensively with EtOH then further modified by immersing in a solution of 2 mM Sulfo-SMCC/PBS pH 7.4 for 1 hour, thereby exposing a surface-bound maleimide which can be used to covalently couple peptides to the gold substrate via the C-terminal cysteine.
Peptide spotting on gold substrate. Diluted peptide samples were spotted on the modified gold substrate using a commercial robotic spotter in an array format. The array contained ˜440 peptide spots (including replicates and blank reference spots), each spot having ˜200 um diameter. Spotted substrates were kept in a humidity chamber overnight to ensure complete reaction between the surface exposed maleimide and the C-terminal cysteine in the peptides. After ˜12-hours, the substrates were washed with PBST buffer to remove excess peptide not bound to the gold substrate. Finally, unreacted maleimide groups were quenched using a 2 mM β-mercaptoethanol/PBST solution thereby presenting a hydrophilic surface in regions not containing peptide.
Determination of target affinity using SPR. Gold substrates containing arrays of peptide variants and the lead peptide were loaded into a FlexChip SPR (Biacore) instrument. To ensure binding specificity, three injections of 0.2% BSA sample were flowed across the array using the FlexChip fluidics. The array was then washed with a continuous 1 mL/min flow of PBST buffer until the sensorgram reached a stable baseline. After reaching a baseline, the array was washed 2 additional minutes using PBST, then a 10 μM Transferrin/PBST sample was injected and continuously recycled over the array surface for 8 minutes. After the recycle the array was washed […] with continuous 1 mL/min PBST flow for 10 minutes. Sensorgrams were continuously recorded during the 2 minute prewash (to ensure baseline stability), 8 minute Transferrin sample recycle and post sample recycle wash.
Quantification of relative target affinities. Sensorgram values were taken from the stability region, that is the region ˜10 seconds into the post sample recycle wash. Sensorgram values at this point should allow identification of peptides that have both high levels of target binding and off-rates slower than the lead peptide. […] Data processing included identification of the mutated position at a particular SPR array spot as well as signal normalization relative to the lead peptide (lead peptide=1), enhanced binders have positive values and reduced binders have negative values.
Two TRF26 point-mutants (P6Y, H12F) were selected for further affinity characterization. The P6Y and H12F point-mutants have dissociation constants of 8.6±1.6 μM and 9.8±1.6 μM respectively. […] A TRF26 double mutant sequence containing the P6Y+H12F mutations was synthesized and characterized.

[3] = target: T2, human α-thrombin (Homo sapiens, UniProt P00734); experiment: ELISA-type assay on thrombin-coated wells; format: binding; details: read-out: Dissociation constant estimated from ELISA-type assay
T2 construct: human α-thrombin
Description: Binding to thrombin was evaluated in an ELISA-type assay. Wells of a 96 well plate were coated with 100 μL of 30 μg/mL human α-thrombin and incubated at 4C overnight. The plate was washed twice with DDI H2O and passivated with 3% BSA in 1×PBS buffer for 1 hour. The plate was shaken out and 50 μL of varying concentrations of analyte (DNA tile synbody, DNA tile with each aptamer with the other not present, and each aptamer alone, respectively) were incubated at RT for 1 hour. DNA tiles were biotin-modified at the 5′ end of one of the distal DNA strands 346 (see FIG. 26(a)). The plate was rinsed 10 times in 1×PBS and 50 μL of 1:1000 dilution of streptavidin-HRP in 0.1% BSA in 1×PBS was pipetted and incubated for 1 hour at RT. The plate was again rinsed and 50 μL of TMB was added and incubated at RT for 15 minutes. 50 μL of 0.5M HCl was added and the plate was read immediately. Results are shown in FIG. 27 for the DNA tile synbody 350; the DNA tile with Apt1 but not Apt2 present 352; the DNA tile with Apt2 but not Apt1 present 356; Apt1 alone 354; and Apt2 alone 358. Dissociation constant values estimated from this assay were about 1 nM for the DNA tile synbody, about 10 nM for Apt1 alone, and more than 1 μM for Apt2 alone.

[4] = target: T1, transferrin; experiment: SPR (Biacore T100) steady state affinity of mRNA display clones on immobilized transferrin; format: binding; details: for Kd: steady state affinity model, 32 to 0.0625 μM
Description: Five clones (see Table 15) were selected, synthesized and purified by HPLC for characterization by surface plasmon resonance (SPR) (T100 instrument from Biacore). Transferrin was immobilized using standard NHS/EDC immobilization chemistry according to the methods described in Frostell-Karlsson, A., Remaeus, A., Andersson, K., Borg, P., Hamalainen, M., and Karlsson, R. (2000) J. Med. Chem. 43, resulting in 9758 RU of immobilized protein. HPLC purified peptides were injected over the surface and sensograms were recorded at multiple concentrations (32, 16, 8, 4, 2, 1, 0.5, 0.25, 0.125. and 0.0625 μM). Affinity plots were generated for each peptide and fit using a steady state affinity model.

[5] = target: T1, transferrin; experiment: SPR analysis of peptide pairs for binding to distinct sites on immobilized transferrin
Excerpt: The transferrin target was immobilized on a Biacore T100 SPR chip, and candidate polypeptides were applied in 1:1 mixtures in pairs and response data obtained, in accordance with the methods described in Example 4 above. As illustrated in FIGS. 12A-D, upon flowing candidate polypeptides over the immobilized target, ideally one polypeptide applied alone would bind to a first binding site on the target and produce a first characteristic SPR response level (FIG. 12A), the other polypeptide would bind to a second, distinct binding site on the target, producing a second characteristic response level (FIG. 12B), and a mixture of the two polypeptides together (at the same concentrations as before) would produce a response level approximating the sum of the response levels produced by each polypeptide alone, as the polypeptides bind to distinct binding sites (FIG. 12C).

[6] = observed, read-out: dissociation constant
[7] = Table 13A, lead and point-mutants

Compound: FERSYLKMPWKFLQSRQGSC [TNF1-opt]
- koff [1]: 0.2 ± 0.02 s⁻¹

Compound: AHKVVYQRQIRHAYNRYGSC [P6Y]
- Binding ΔG ([2]; Table 13C): -6.93 ± 0.11 kcal/mol
- Component Binding ΔG Contribution ([2]; Table 13C): -1.37 ± 0.15 kcal/mol
- Kd Fold-Change Relative to Lead ([2]; Table 13C): 10 ± 2.5
- Kd [2, 6]: 8.6 ± 1.6 µM

Compound: 5′-AGTCCGTGGTAGGGCAGGTTGGGGTGACT-3 [Apt1 alone]
- Kd [3]: ~0.01 µM

Compound: AHKVVPQRQIRFAYNRYGSC [H12F]
- Binding ΔG ([2]; Table 13C): -6.85 ± 0.10 kcal/mol
- Component Binding ΔG Contribution ([2]; Table 13C): -1.29 ± 0.14 kcal/mol
- Kd Fold-Change Relative to Lead ([2]; Table 13C): 8.8 ± 2.0
- Kd [2, 6]: 9.8 ± 1.6 µM

Compound: 5′-GGTTGGTGTGGTTGG-3′ [Apt2 alone]
- Kd [3]: > 1 µM

Compound: AHKVVYQRQIRFAYNRYGSC [P6Y + H12F]
- Observed Binding ΔG ([2]; Table 13D): -8.68 ± 0.15 kcal/mol
- Observed Kd Fold-Change Relative to Lead ([2]; Table 13D): 190 ± 57
- Predicted Binding ΔG ([2]; Table 13D, energetic additivity): -8.22 ± 0.18 kcal/mol
- Kd [2, 6]: 0.5 ± 0.1 µM

Compound: FERDPLMMPWSFLQSRQGSC [TNF1]
- Binding ΔG [1, 7]: -5.21 ± 0.07 kcal/mol
- Kd [1, 7]: 160 ± 19 µM
- koff [1]: 1.6 ± 0.5 s⁻¹

The next lines start with the values.

- affinity improvement in comparison to the original peptide TRF26 [4]: more than 10 fold
Compound: AHKVVPQRQMRHAYSRYGSC [TBPM023]

- Kd [4]: > 300 µM
Compound: C[C@H](N)C(=O)N[C@H](C(=O)N[C@@H](CCCNC(=N)N)C(=O)N[C@@H](Cc1c[nH]c2ccccc12)C(=O)N[C@@H](CS)C(=O)N1CCC[C@H]1C(=O)N[C@@H](CO)C(=O)N[C@@H](C)C(=O)N[C@@H](CCCNC(=N)N)C(=O)N1CCC[C@H]1C(=O)N[C@@H](C)C(=O)N[C@H](C(=O)N1CCC[C@H]1C(=O)N[C@H](C(=O)N[C@H](C(=O)N[C@@H](C)C(=O)N[C@H](C(=O)NCC(=O)N[C@@H](CO)C(=O)N[C@@H](CS)C(=O)O)[C@@H](C)O)[C@@H](C)O)[C@@H](C)O)[C@@H](C)O)[C@@H](C)O [TBPM021] (H-ATRWCPSARPATPTTATGSC-OH)

- Binding ΔG ([2]; Table 13C): -5.56 ± 0.10 kcal/mol
- Kd ([2]; Table 13C, read-out: Kd): 85 ± 14 µM
- binding sites on transferrin (pairs applied in 1:1 mixtures) [5]: bind distinct sites on transferrin
Compound: AHKVVPQRQIRHAYNRYGSC [TRF26]

- Kd [4]: > 300 µM
Compound: CC(C)C[C@H](NC(=O)[C@H](CCCNC(=N)N)NC(=O)[C@@H]1CCCN1C(=O)[C@@H]1CCCN1C(=O)[C@H](CC(=O)O)NC(=O)[C@@H]1CCCN1C(=O)[C@H](C)NC(=O)[C@@H]1CCCN1C(=O)[C@H](CS)NC(=O)[C@H](Cc1c[nH]c2ccccc12)NC(=O)CNC(=O)[C@@H](NC(=O)[C@@H]1CCCN1)[C@@H](C)O)C(=O)N[C@@H](Cc1c[nH]cn1)C(=O)N1CCC[C@H]1C(=O)N[C@@H](CC(C)C)C(=O)N[C@@H](Cc1c[nH]cn1)C(=O)NCC(=O)N[C@@H](CO)C(=O)N[C@@H](CS)C(=O)O [TBPM003] (H-PTGWCPAPDPPRLHPLHGSC-OH)
